Source: patent publication US11638427B2, “Methods and compositions for altering secondary metabolites in plants” (Impello Biosciences, Inc, priority 2020, dated 2023)

How the values were obtained:
[1] = tested on: high-CBD hemp varieties Stormy Daniels and BaOX; experiment: Field foliar applications of MDJ, MeJA and CJ on high-CBD hemp, cannabinoid analysis; format: in vivo, Cannabis spp.; conditions: 7.5 mM foliar, four applications every 14 days in flowering
Protocol: However, MDJ is not known to have any significant bioactivity in planta and is not an endogenously produced phytohormone in cannabis, so it was unknown whether MDJ would afford the same functionality as MeJA. Similarly, CJ has likewise been relatively under-investigated as a plant elicitor despite being a decarboxylation product of Jasmonic Acid. Here, the effect of MDJ and CJ were analyzed (in addition to MeJA) in order to determine any difference in the effect of these treatments on field-grown high-CBD hemp varieties.
A hemp field experiment was conducted during the flowering phase of plant development in a private research field located in North Carolina. Sixty (60) plants from two distinct plant variety populations, Stormy Daniels and BaOX were selected for the trial. Each group of 60 plants was randomly divided into three groups of 20 plants and labeled accordingly to indicate the treatment group (T1, T2, T3). All plants were cultivated identically and subjected to approximately the same environmental conditions. Control, untreated plants were taken from the same field. Plants were treated according to treatment group, and each treatment group was subjected to four (4) applications of its respective treatment, with the first treatments applied on what was considered to be the first day of the flowering phase and repeated then again every successive 14 days up until just prior to harvest. Treatments were as follows: Control group=Control, Treatment 1=MDJ, Treatment 2=MeJA, Treatment 3=CJ.
All treatments were prepared in a stock (concentrated, non-aqueous) form by Impello Biosciences in their lab in Loveland, Colo. and labelled respectively prior to the start of the experiment. All treatments were prepared at a high stock concentration that allowed dilution by the applicator with 2 liters of water to a final 7.5 mM concentration of active ingredient (i.e., MeJA, MDJ, or CJ) for each treatment; 15-mL centrifuge tubes were used as preparation and storage vessels for each of the treatments. Preparation of the stock solutions ensured that the applicator could store the solutions prior to use at 4° C. to minimize degradation and allow for dilution immediately prior to use. In the stock containers, 2 mL of TWEEN®-20 was added to each respective elicitor compound as an emulsifier in order to reach a final oil-in-water emulsion once diluted with a concentration of 7.5 mM active ingredient and 0.1% surfactant (i.e., TWEEN®-20) v/v.
Plants were grown to maturity and 5 plants from each treatment and control group were sampled on Sep. 23, 2019. Care was taken to ensure samples were similar in appearance and spatial location between plants to minimize unintended variance in sample quality. The apical cola for each plant was harvested, and specifically, the top 3″ of the main cola. Yield data was not collected in this study, but no obvious differences in plant size or appearance were noted. Samples were submitted for chemical analysis (Avazyme, Inc, NC).
All models were linear models fit with Group (treatment) as the independent variable and the response variable was the corresponding compound. Data was filtered and comparison between treatments were conducted using the emmeans package and Tukey HSD for post-hoc corrections. Statistical significance was defined by a level of significance of p<0.05 in the Tukey test. Total cannabinoids included CBN, Δ9-THC, CBDV, CBG, CBD, CBC, CBDA, CBGA, THCA, and THCV. Total THC and total CBD were calculated by accounting for the additional weight of the carboxyl group in the acidic forms and adding those to the neutral/non-acidic forms.

seedling mold = experiment: Fungal plug growth on jasmonate-infused PDA plates; format: cell-based, Trichoderma ghanense; conditions: all concentrations (1 mM, 4.25 mM, 10 mM) in PDA; 72 hours and 10 days
Protocol: (§1) MDJ (TCI, CAS No.: 24851-98-7) and CJ were infused into potato dextrose agar (PDA, VWR Cat No.: 90003-494) petri dishes (100×15 mm VWR, Cat No: 25384-094) at concentrations ranging from 1 mM, 4.25 mM, and 10 mM. Each treatment was prepared using a technical grade stock solution of pure chemical (CJ or MDJ) diluted with TWEEN®-20 (VWR, CAS No.: […]). Culturable oyster mushroom and seedling mold served to create fungal mycelial plugs using a sterile 1 mL pipette tip (Eppendorf, Cat No.: 022491458) held upside down. The tips were used to make circle excisions (i.e., fungal plugs) from a mycelial mat grown on PDA with no biochemical infusions. Fungal pugs were then transferred to PDA infused with varying concentrations of CJ or MDJ, and control plates (no CJ or MDJ infusion) to monitor fungal growth at room temperature over time.
To compare the efficacy of MDJ and MeJA at inhibiting the same seedling mold as used in the experiment above, a second experiment was conducted using PDA plates infused with either MDJ or MeJA at different concentrations. All plates were generated and inoculated as described above and incubated at room temperature under identical conditions. Shown in FIGS. 9A-9C are plates of seedling mold 72 hours post fungal inoculation. Control plates are shown on the top row, followed by concentrations of MeJA (left) and MDJ (right) in duplicate at 1 mM (FIG. 9A), 4.25 mM (FIG. 9B), and 10 mM (FIG. 9C). […] Subsequent sequence analysis identified the “seedling mold” as Trichoderma ghanense.

oyster mushroom = experiment: Fungal plug growth on jasmonate-infused PDA plates; format: cell-based; conditions: all concentrations (1 mM, 4.25 mM, 10 mM) in PDA; 72 hours and 10 days
Protocol: as §1

[2] = tested on: marijuana variety Lemon Creamsicle; experiment: Foliar spray of CJ or MDJ on high-THC marijuana in greenhouse, cannabinoid analysis; format: in vivo, Cannabis spp.; conditions: 7.5 mM foliar spray every 14 days, four treatments
Protocol: Applicant's previous experiments investigated the effects of jasmonate-type elicitors MeJA, MDJ, and CJ on hemp (high fiber) and high-CBD, (low-THC) varieties of Cannabis. […] Here, the effects of MDJ and CJ application on a high-THC variety in a controlled environment was investigated. High-THC, low-CBD marijuana variety “Lemon Creamsicle” (LC), was grown in a greenhouse setting. LC was used as a plant model due to its historically consistent metabolite profile in the greenhouse environment, making it a stable, known, and reliable variety.
A four-block plant trial was implemented with a population of N=12 plants and treatment group sizes of n=4. The treatment and control groups were defined as follows: Control=water+0.1% TWEEN®-20 aqueous foliar spray, Treatment 1=[7.5 mM] CJ+0.1% TWEEN®-20 aqueous foliar spray, Treatment 2=[7.5 mM] MDJ+0.1% TWEEN®-20 aqueous foliar spray. A standardized concentration of [7.5 mM] for both CJ and MDJ applications was chosen due to its performance in Applicant's past research. All treatment solutions were prepared the day of the application in equal volumes from pre-measured quantities of the stock materials to ensure consistency, i.e., appropriate volumes of CJ or MDJ were combined with appropriate volumes of TWEEN®-20 for each experimental treatment, stored in a sealed centrifuge tube, and diluted in the appropriate amount of water immediately prior to application. Separate sprayers were used for each treatment and control sprays to avoid cross-contamination.
All plants in the trial were produced as asexual clone stock taken from the same mother plant at the same time to ensure homogeneity. All plants were rooted and grown in accordance with the production practices typical to this greenhouse operator prior to plant selection for the experiment. Due to the layout of the cultivation system, which features immovable hydroponic “pots” that house the plant throughout the entire flowering (i.e., reproductive) phase, all plants included in the experiment were selected from a set section of the greenhouse after final transplant into the hydroponic system and grouped in a complete randomized block design accordingly.
After defining the plants to include in the experiment, which were organized in two (2) rows of six (6) plants side-by-side in the hydroponic system, the experimental blocks were defined as groups of three plants, and a research randomizer tool (randomizer.org) was used to generate a randomized arrangement of plants in each group. Using a blocked design in this setting helped account for the immovable nature of the plants and the slight, if any, environmental differences (like natural sunlight, shading from other plants, and corner/edge effect) that existed in the small experimental area. Blocking the experimental arrangement also allowed for improved statistical analysis and resolution considering the small sample size and close proximity of the experimental plants.
After labelling each plant in the experiment with the appropriate group label (Control, T1 [CJ], or T2 [MDJ]), the plants were allowed to grow normally between treatment applications, which were performed every 14 days for a total of four (4) treatments throughout the flowering cycle, which lasted approximately eight (8) weeks. The first treatment occurred seven (7) days after the onset of the flowering cycle, which was dictated by day-length control. Care was taken with each treatment application to minimize overspray onto non-target neighboring plants, and physical barriers were temporarily installed between plants during treatment sprays to aid in this effort. These barriers were removed following treatment sprays when the foliage was no longer visibly wet from the treatment and/or control foliar sprays. […]

CC/C=C\CC1=C(C)CCC1=O [CJ, cis-jasmone]
CBDA increase relative to the control group [1]: 23.61%
THCA increase relative to the control group [1]: 27.23%
Total CBD increase relative to the control group [1]: 23.64%
Total Cannabinoids increase relative to the control group [1]: 22.92%
Total THC increase relative to the control group [1]: 27.09%
seedling mold growth compared to control (seedling mold): showed inhibition
Oyster mushroom fungal growth compared to control (oyster mushroom): showed inhibition
CBGA average relative percent increase compared to the Control group [2]: 11.22%
THCA average relative percent increase compared to the Control group [2]: 1.13%
Total Cannabinoids average relative percent increase compared to the Control group [2]: 1.17%
Total THC average relative percent increase compared to the Control group [2]: 1.03%
